In patent publication US12637478B2, “Compound, preparation method thereof, and antibiotic composition comprising same” (priority 2020, dated 2026) one finds MIC data, which are given here for three molecules.

≈ marks a conversion by molar mass, not a printed value. Like-named read-outs stand apart in the source and are kept apart here. Bounds are passed on as bounds.

One experiment relates to E. faecalis. Kind of experiment: MIC by broth microdilution (aerobic pathogens), test strain 7. Type of experiment: cell-based. To be noted: Enterococcus faecalis; test strain 7, E. faecalis; read-out: MIC. The method in brief: (§1)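 Broth microdilution per CLSI M7-A5 standards was used. MIC was taken as the lowest antibiotic concentration inhibiting bacterial growth by 90% relative to the untreated growth control.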

The subject of the next experiment is E. faecalis^VanA. Description: MIC by broth microdilution (aerobic pathogens), test strain 8. To be noted: Enterococcus faecalis; test strain 8, E. faecalis^VanA (vancomycin resistant); read-out: MIC. Format: cell-based, Vancomycin resistant Enterococcus faecalis. In a few lines: as §1
A general note: Dilution methods test growth across graded concentrations, often in twofold steps.

For another experiment, the system named is C. difficile 181. Kind of experiment: MIC by agar dilution against Clostridioides difficile, test strain 19. Type of experiment: cell-based. The following applies: test strain 19, C. difficile 181, anaerobic, agar dilution, read-out: MIC. On the technique in general: In agar dilution, organisms are placed on agar that contains the substance at set levels.

Experiment [1] relates to S. aureus^MS. Kind of experiment: MIC by broth microdilution (aerobic pathogens), test strain 1. Format: cell-based. To be noted: Staphylococcus aureus; test strain 1, S. aureus^MS; read-out: MIC. In a few lines: as §1
Another experiment deals with C. difficile 161. Description: MIC by agar dilution against Clostridioides difficile, test strain 16. To be noted: test strain 16, C. difficile 161, anaerobic, agar dilution, read-out: MIC. Format: cell-based.
In a further experiment the test system is C. difficile 159. Description: MIC by agar dilution against Clostridioides difficile, test strain 15. Type of experiment: cell-based. The following applies: test strain 15, C. difficile 159, anaerobic, agar dilution, read-out: MIC.
The subject of another experiment is S. epidermis^MR. Kind of experiment: MIC by broth microdilution (aerobic pathogens), test strain 6. Format: cell-based, Methicillin resistant Staphylococcus epidermidis. To be noted: Staphylococcus epidermidis. In a few lines:
as §1

The test system of the next experiment is E. faecium^VRE. Description: MIC by broth microdilution (aerobic pathogens), test strain 11. To be noted: Enterococcus faecium; test strain 11, E. faecium^VRE (vancomycin resistant); read-out: MIC. Type of experiment: cell-based, Vancomycin resistant Enterococcus faecium. The method in brief:
as §1

The subject of the next experiment is M. intracelluare. Kind of experiment: MIC by resazurin (REMA) assay against Mycobacterium, test strain 22. Format: cell-based. To be noted: Mycobacterium intracellulare; test strain 22, M. intracelluare, resazurin; read-out: MIC. The protocol:
(§2) In order to test the antibacterial activity, the medium of Mycobacterium cultured to late log phase was diluted so as to be 4.0×10^5 cells/well in Middlebrook 7H10 agar medium (Difco) supplemented with 10% oleic acid, albumin, dextrose, catalase (OADC, Becton Dickinson) and 0.05% Tween 80 (Sigma Aldrich) and was dispensed into a 96-well plate. The compounds were treated so that DMSO was 1%, and after 3 days, a 0.025% resazurin (REMA) solution was dispensed, and the growth of the bacteria was confirmed after culturing. The MIC value was measured for the antibacterial activity through resazurin (excitation 530 nm, emission 590 nm).

Another experiment relates to S. epidermis. Kind of experiment: MIC by broth microdilution (aerobic pathogens), test strain 5. Format: cell-based. The following applies: Staphylococcus epidermidis; test strain 5, S. epidermis; read-out: MIC. The method in brief: as §1
A further experiment relates to E. faecalis^LinR. Kind of experiment: MIC by broth microdilution (aerobic pathogens), test strain 9. Format: cell-based, Linezolid resistant Enterococcus faecalis. The following applies: Enterococcus faecalis. In a few lines:
as §1

Experiment [2] has as its system S. aureus^MS. Kind of experiment: MIC by broth microdilution (aerobic pathogens), test strain 2. Type of experiment: cell-based. To be noted: Staphylococcus aureus; test strain 2, S. aureus^MS; read-out: MIC. In a few lines: as §1
The test system of another experiment is S. aureus^VR. Kind of experiment: MIC by broth microdilution (aerobic pathogens), test strain 4. Format: cell-based, Vancomycin resistant Staphylococcus aureus. The following applies: Staphylococcus aureus; test strain 4, S. aureus^VR (vancomycin resistant); read-out: MIC. In a few lines:
as §1

In another experiment the test system is C. difficile 9689. Kind of experiment: MIC by agar dilution against Clostridioides difficile, test strain 13. Type of experiment: cell-based. The following applies: test strain 13, C. difficile 9689, anaerobic, agar dilution, read-out: MIC.
The subject of a further experiment is M. avium. Kind of experiment: MIC by resazurin (REMA) assay against Mycobacterium, test strain 21. Format: cell-based. To be noted: test strain 21, M. avium, resazurin, read-out: MIC. The method, then:
as §2
A general note: The colour change of resazurin is a common sign of viable cells or microbes.

Another experiment deals with E. faecium^LinR. Description: MIC by broth microdilution (aerobic pathogens), test strain 12. Format: cell-based, Linezolid resistant Enterococcus faecium. The following applies: Enterococcus faecium; test strain 12, E. faecium^LinR (linezolid resistant); read-out: MIC. In a few lines:
as §1

In the next experiment the test system is C. difficile 174. Kind of experiment: MIC by agar dilution against Clostridioides difficile, test strain 18. Type of experiment: cell-based. To be noted: test strain 18, C. difficile 174, anaerobic, agar dilution, read-out: MIC.
In the next experiment the test system is E. faecium. Kind of experiment: MIC by broth microdilution (aerobic pathogens), test strain 10. Format: cell-based. The following applies: Enterococcus faecium; test strain 10, E. faecium; read-out: MIC. The method in brief:
as §1

In a further experiment the test system is M. abscessus. Kind of experiment: MIC by resazurin (REMA) assay against Mycobacterium, test strain 23. Format: cell-based. The following applies: Mycobacteroides abscessus; test strain 23, M. abscessus, resazurin; read-out: MIC. In a few lines:
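Late-log mycobacteria at 4.0×10^5 cells/well in Middlebrook 7H10 with 10% OADC and 0.05% Tween 80, compound at 1% DMSO. Resazurin (0.025%) added after 3 days; MIC read by fluorescence (ex 530 nm, em 590 nm).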

A further experiment has as its system S. aureus^MR. Description: MIC by broth microdilution (aerobic pathogens), test strain 3. Format: cell-based, Methicillin resistant Staphylococcus aureus. The following applies: Staphylococcus aureus; test strain 3, S. aureus^MR (methicillin resistant); read-out: MIC. The method in brief: as §1
The subject of another experiment is C. difficile 173. Kind of experiment: MIC by agar dilution against Clostridioides difficile, test strain 17. Type of experiment: cell-based. The following applies: test strain 17, C. difficile 173, anaerobic, agar dilution, read-out: MIC.
The test system of the next experiment is C. difficile 152. Description: MIC by agar dilution against Clostridioides difficile, test strain 14. Type of experiment: cell-based. The following applies: test strain 14, C. difficile 152, anaerobic, agar dilution, read-out: MIC.
In another experiment the test system is M. tuberculosis. Kind of experiment: MIC by resazurin (REMA) assay against Mycobacterium, test strain 20. Format: cell-based. The protocol: as §2
Setting [3] is: test strain 6, S. epidermis^MR (methicillin resistant), read-out: MIC.
Where [4] appears, read: test strain 9, E. faecalis^LinR (linezolid resistant), read-out: MIC.

Turning to `C/C=C1\NC(=O)[C@H]([C@@H](C)O)NC(=O)c2csc(n2)-c2ccc(-c3nc(-c4nc(C(=O)NC5(C(=O)NCCCN6CCOCC6)CC5)cs4)cs3)nc2-c2csc(n2)[C@H]([C@@H](C)O)NC(=O)c2csc(n2)[C@H](C(C)C)NC(=O)c2csc1n2` [Compound 7], the MIC is 0.25 µg/mL (≈ 0.206 µM) in the experiment on E. faecalis; 0.25 µg/mL (≈ 0.206 µM) with E. faecalis^VanA; 0.25 µg/mL (≈ 0.206 µM) in the experiment on C. difficile 181; 0.25 µg/mL (≈ 0.206 µM) in the experiment with S. aureus^MS [1]; 0.5 µg/mL (≈ 0.412 µM) in the experiment with C. difficile 161; 0.25 µg/mL (≈ 0.206 µM) in the experiment on C. difficile 159. Besides, the MIC stood at 0.125 µg/mL (≈ 0.103 µM) in the experiment with S. epidermis^MR; 1 µg/mL (≈ 0.824 µM) in the experiment on E. faecium^VRE; 0.107 µg/mL (≈ 0.0882 µM) with M. intracelluare; 0.0625 µg/mL (≈ 0.0515 µM) in the experiment on S. epidermis; 0.125 µg/mL (≈ 0.103 µM) in the experiment with E. faecalis^LinR; 0.25 µg/mL (≈ 0.206 µM) with S. aureus^MS [2]. In addition, the MIC in the experiment with S. aureus^VR was found to be 1 µg/mL (≈ 0.824 µM); with C. difficile 9689, 0.25 µg/mL (≈ 0.206 µM); in the experiment with M. avium, 0.083 µg/mL (≈ 0.0684 µM); in the experiment on E. faecium^LinR it was 0.5 µg/mL (≈ 0.412 µM); with C. difficile 174, 0.06 µg/mL (≈ 0.0494 µM); in the experiment on E. faecium it was 0.25 µg/mL (≈ 0.206 µM). Further, the MIC with M. abscessus turned out to be 0.322 µg/mL (≈ 0.265 µM); with S. aureus^MR, 0.5 µg/mL (≈ 0.412 µM); in the experiment with C. difficile 173 it was 0.06 µg/mL (≈ 0.0494 µM); with C. difficile 152 it was 0.06 µg/mL (≈ 0.0494 µM).

In the case of `C/C=C(\NC(=O)c1csc(-c2csc(-c3ccc4c(n3)-c3csc(n3)[C@H]([C@@H](C)O)NC(=O)c3csc(n3)[C@H](C(C)C)NC(=O)c3csc(n3)/C(=C/C)NC(=O)[C@H]([C@@H](C)O)NC(=O)c3csc-4n3)n2)n1)C(=O)NCCN1CCOCC1` [Compound 1], the MIC is 0.25 µg/mL (≈ 0.208 µM) in the experiment on E. faecalis; 0.125 µg/mL (≈ 0.104 µM) in the experiment with E. faecalis^VanA; 0.125 µg/mL (≈ 0.104 µM) in the experiment with S. aureus^MS [1]; 0.5 µg/mL (≈ 0.417 µM) in the experiment on C. difficile 161; 0.125 µg/mL (≈ 0.104 µM) in the experiment on S. epidermis^MR (setting [3]); 0.076 µg/mL (≈ 0.0634 µM) against M. tuberculosis. For the same molecule, the MIC was determined as 0.125 µg/mL (≈ 0.104 µM) in the experiment on S. epidermis; 0.125 µg/mL (≈ 0.104 µM) with E. faecalis^LinR (setting [4]); 0.125 µg/mL (≈ 0.104 µM) with S. aureus^MS [2]; 1 µg/mL (≈ 0.834 µM) with S. aureus^VR; 1 µg/mL (≈ 0.834 µM) with E. faecium^LinR; 0.5 µg/mL (≈ 0.417 µM) in the experiment on C. difficile 174. Moreover, the results for the MIC in the experiment on E. faecium and in the experiment on C. difficile 173 were 0.5 µg/mL (≈ 0.417 µM) and 1 µg/mL (≈ 0.834 µM), respectively.

As for `C/C=C(\NC(=O)c1csc(-c2csc(-c3ccc4c(n3)-c3csc(n3)[C@H]([C@@H](C)O)NC(=O)c3csc(n3)[C@H](C(C)C)NC(=O)c3csc(n3)/C(=C/C)NC(=O)[C@H]([C@@H](C)O)NC(=O)c3csc-4n3)n2)n1)C(=O)NCCn1c([N+](=O)[O-])cnc1C` [Compound 3], the MIC was determined as 0.0625 µg/mL (≈ 0.0504 µM) in the experiment with E. faecalis; 0.125 µg/mL (≈ 0.101 µM) in the experiment with E. faecalis^VanA; 0.5 µg/mL (≈ 0.403 µM) in the experiment on C. difficile 181; 0.0625 µg/mL (≈ 0.0504 µM) in the experiment with S. aureus^MS [1]; 0.25 µg/mL (≈ 0.202 µM) in the experiment with C. difficile 161; 1 µg/mL (≈ 0.807 µM) with C. difficile 159. Besides, the MIC in the experiment on S. epidermis^MR (setting [3]) is 0.125 µg/mL (≈ 0.101 µM); in the experiment on E. faecium^VRE, 0.25 µg/mL (≈ 0.202 µM); against M. tuberculosis, 0.1 µg/mL (≈ 0.0807 µM); in the experiment on S. epidermis, 0.25 µg/mL (≈ 0.202 µM); in the experiment with E. faecalis^LinR (setting [4]), 0.125 µg/mL (≈ 0.101 µM); in the experiment with S. aureus^MS [2], below 0.0625 µg/mL. Further, the MIC with S. aureus^VR was determined as 0.25 µg/mL (≈ 0.202 µM); in the experiment on E. faecium^LinR, 0.25 µg/mL (≈ 0.202 µM); in the experiment with C. difficile 174 it was 0.25 µg/mL (≈ 0.202 µM); with E. faecium it was 0.125 µg/mL (≈ 0.101 µM); in the experiment on S. aureus^MR, 1 µg/mL (≈ 0.807 µM); with C. difficile 173, 0.5 µg/mL (≈ 0.403 µM). Further, the MIC in the experiment on C. difficile 152 is 1 µg/mL (≈ 0.807 µM).

For orientation: MIC means the lowest concentration found to suppress growth.
